B1: IFN-γ: cytokine added (100 U/ml, 2 days) to melanoma cell lines (protein, UniProt P01579 24-161, looked up)
Interferon gamma: QDPYVKEAENLKKYFNAGHSDVADNGTLFLGILKNWKEESDRKIMQSQIVSFYFKLFKNFKDDQSIQKSVETIKEDMNVKFFNSNKKKRDDFEKLTNYSVTDLNVQRKAIHELIQVMAELSPAAKTGKRKRSQMLFRG

Columns and labels:
PBMC = assay: IFN-γ ELISPOT assay; type: cell-based, human; details: PBMC from HLA-A2+ cancer patients (breast cancer, melanoma, renal cell carcinoma) stimulated once with peptide in vitro
Excerpt: The ELISPOT assay was used to quantify peptide specific IFN-γ releasing effector cells as described previously (Andersen et al., 2001, Cancer Res. 61:869-872). In some experiments PBMC were stimulated once in vitro with peptide prior to analysis as described (McCutcheon et al., 1997, J Immunol Methods 210:149-166) to extend the sensitivity of the assay. Briefly, nitrocellulose bottomed 96-well plates (MultiScreen MAIP N45; Millipore) were coated overnight with IFN-γ capture mAb (Mabtech). The wells were washed, blocked by X-vivo medium and the effector cells (PBMC collected and when indicated stimulated as described above) were added in duplicates at different cell concentrations, with or without 10 μM peptide. The plates were incubated overnight. The following day, medium was discarded and the wells were washed prior to addition of the relevant biotinylated secondary Ab (Mabtech). The plates were incubated at room temperature (RT) for 2 hours, washed, and Avidin-enzyme conjugate (AP-Avidin; Calbiochem/Invitrogen Life Technologies) was added to each well. Plates were incubated at RT for 1 hour and the enzyme substrate NBT/BCIP (Invitrogen Life Technologies) was added to each well and incubated at RT for 5-10 min. Upon the emergence of dark purple spots, the reaction was terminated by washing with tap water. The spots were counted using the ImmunoSpot Series 2.0 Analyzer (CTL Analyzers).
In the present study the ELISPOT was performed according to the guidelines provided by CIP (http://cimt.eu/cimt/files/dl/cip_guidelines.pdf). In some experiments PBMC were stimulated once in vitro with peptide prior to analysis as described to extend the sensitivity of the assay. Briefly, nitrocellulose bottomed 96-well plates (MultiScreen MAIP N45; Millipore) were coated overnight with the relevant antibodies. The wells were washed, blocked by X-vivo medium and the effector cells were added if possible in triplicates otherwise in duplicates at different cell concentrations, with or without peptide. The plates were incubated overnight. The following day, medium was discarded and the wells were washed prior to addition of the relevant biotinylated secondary Ab (Mabtech), followed by the Avidin-enzyme conjugate (AP-Avidin; Calbiochem/Invitrogen Life Technologies) and finally the enzyme substrate NBT/BCIP (Invitrogen Life Technologies). The spots were counted using the ImmunoSpot Series 2.0 Analyzer (CTL Analyzers). Definition of an ELISPOT response was based on the guidelines and recommendations provided by CIP by an empirical or a statistical approach; the former implies setting a threshold to represent a biological response. […] The non-parametric Distribution free resampling (DFR) test gives a way of formally comparing antigen stimulated wells with negative control wells. As a minimum the ELISPOT assay must be performed at least in triplets. Furthermore, the non-parametric unpaired Mann-Whitney test was used to compare PD-L101-specific responders between cancer patients and healthy donors.

T2-cells = assay: 51Cr-release cytotoxicity assay, T2-cells; type: cell-based
Protocol: Conventional ^51Cr-release assays for CTL-mediated cytotoxicity were carried out as described elsewhere (Andersen et al., 1999). Target cells were T2 with and without PDL101 (FIG. 3a) and the HLA-A2+ breast cancer cell line the breast cancer cell line MDA-MB-231 (FIG. 3b) (available at the American Type Culture Collection (ATCC)).
(§1) Conventional ^51Cr-release assays for CTL-mediated cytotoxicity were carried out as described in Andersen et al., J Immunol 1999. Target cells were T2-cells, HLA-A2^+ EBV transformed B-cell line (KIG-BCL), autologous matured DC (mDC), HLA-A2^+ melanoma cell lines (MM1312.07 and MM.909.06) with or without IFN-γ (100 U/ml) addition for 2 days. T2-cells and KIG-BCL were pulsed with PD-L1 recombinant protein (Sin θ Biological Inc.) for 3 hr. at 37° C. prior addition of chromium. Lysis of T2-cells was blocked using anti HLA-A2 FITC conjugated antibody (2 ug/100 ul, BD Biosciences).

[1] = tested on: HLA-A2+ EBV transformed B-cell line (KIG-BCL); type: cell-based; details: 51Cr-release
Protocol: as §1

[2] = tested on: PD-L1 surface expression on MM1312.07; assay: Flow cytometry of PD-L1 surface expression on MM1312.07; type: cell-based; details: FACS
Protocol: (§2) Flow cytometry analysis was performed on a FACSCANTO II (BD Biosciences, San Jose Calif., USA) to determine PD-L1 surface expression on mDC before and after siRNA targeted silencing, T2-cells, KIG-BCL and HLA-A2^+ melanoma cell lines (MM1312.07 and MM.909.06) with or without IFN-γ treatment. Cells were washed in PBS/1% BSA and subsequently stained either with FITC- or PE-Cy5-conjugated anti-PD-L1 monoclonal antibody for 30 min on ice in PBS/1% BSA. Nonreactive isotype-matched antibody (BD Biosciences) was used as control. Fluorescence analyses were performed using FACSDiva software (BD Biosciences) and FlowJo software (Tree Star, Ashland Oreg., USA).

[3] = tested on: HLA-A2+ melanoma cell line MM.909.06; assay: 51Cr-release cytotoxicity assay, MM.909.06; type: cell-based; details: IFN-γ (100 U/ml) for 2 days
Protocol: as §1

[4] = tested on: HLA-A2+ melanoma cell line MM1312.07; assay: 51Cr-release cytotoxicity assay, MM1312.07; type: cell-based; details: IFN-γ (100 U/ml) for 2 days
Protocol: as §1

[5] = tested on: PD-L1 surface expression on MM.909.06; assay: Flow cytometry of PD-L1 surface expression on MM.909.06; type: cell-based; details: FACS
Protocol: as §2

Row | Molecule | specific T-cell responses, IFN-γ ELISPOT (PBMC) | lysis of peptide- or protein-pulsed T2-cells by PD-L101-specific T-cell culture (T2-cells) | lysis of pulsed KIG-BCL by PD-L101-specific CTL [1] | also measured
1 | CLGVALTFI (PD-L1 peptide) [PDL111] | responses were detected | – | – | –
2 | VILGAILLCL (PD-L1 peptide) [PDL114] | responses were detected | – | – | –
3 | PD-L1 protein: PD-L1 recombinant protein (Sin θ Biological Inc.), full length, used to pulse T2-cells and KIG-BCL | – | recognized and killed | not recognized | –
4 | ILKEPVHGV [HIV-1 pol476-484, reference compound] | – | no cytotoxic was observed | not killed | –
5 | B1 | – | – | – | effect of IFN-γ treatment on PD-L1 expression, MM1312.07 [2]: increased the expression of PD-L1 in both cell lines; effect of IFN-γ treatment on killing of MM.909.06 [3]: increased the killing of both melanoma cell lines; effect of IFN-γ treatment on killing of MM1312.07 [4]: increased the killing of both melanoma cell lines; effect of IFN-γ treatment on PD-L1 expression, MM.909.06 [5]: increased the expression of PD-L1 in both cell lines

Reference: patent US9669078B2, “PD-L1 based immunotherapy” (Herlev Hospital, priority 2011, dated 2017)
